Columns and labels:
[1] = Determination of lactone–zwitterion equilibrium constant KL–Z; type: physicochemical; conditions: 1:1 (v/v) dioxane–water
Description: Detailed descriptions of the materials and methods are provided in the supporting information. Multifunctional rhodamine–HaloTag ligands (13HTL–16HTL and 18HTL–20HTL) were synthesized using palladium-catalyzed cross-coupling reactions to install 3-carboxyazetidine moieties onto rhodamine scaffolds, followed by amide bond formation with biotin–PEG2–NH2, (S)-JQ1–PEG2–NH2, or (R)-JQ1–PEG2–NH2. Spectroscopic properties (λabs, λem, ε, and Φf) were determined in 10 mM HEPES, pH 7.3. The lactone–zwitterion equilibrium constants (KL–Z) were measured in 1:1 (v/v) dioxane–water mixtures. Octanol–water distribution coefficients (logD7.4) were determined by miniaturized shake-flask partitioning experiments using PBS (pH 7.4) and 1-octanol. Cell culture experiments employed HEK293T, U2OS, and Neuro2a cells transfected with HaloTag fusion constructs and labeled with ligands (100 nM to 1 μM, 0.5 to 2 h at 37 °C), followed by fluorescence microscopy using confocal or lattice light-sheet microscopy. Affinity purification studies utilized streptavidin magnetic beads to capture biotin-labeled HaloTag conjugates, with analysis by SDS-PAGE and in-gel fluorescence detection. […]
Reported values for extinction coefficient (ε) are averages of at least two […]
Determination of KL−Z. The lactone−zwitterion equilibrium constant (KL−Z) was calculated as described previously2-4 using equation 1: […]
where εdw is the extinction coefficient of the dyes in a 1:1 (v/v) dioxane:water solvent mixture containing 0.01% (v/v) triethylamine; this dioxane−water mixture was chosen to give a large range of KL−Z values,3 and the triethylamine additive ensures the rhodamines are in the net neutral form.
The εmax is the maximal extinction coefficient, measured in 0.1% (v/v) trifluoroacetic acid in 2,2,2-trifluoroethanol (TFE) or ethanol. […]

[2] = test system: OMP25–msGFP–HaloTag fusion protein in HEK293T cells; assay: Pulse–chase HaloTag labeling efficiency, SDS–PAGE/in-gel fluorescence; type: cell-based; conditions: 2 h, mean ± SEM
Description: PBS, 2% (v/v) SDS, 1% (v/v) Triton x-100, 10 mM EDTA, and protease inhibitors (2 mM PMSF, aprotinin, leupeptin, and pepstatin A). Samples were then incubated at 50 °C for 3–4 min after the addition of Laemmli sample buffer (SB; Bio-Rad, 1610747) with β-mercaptoethanol (Bio-Rad, 1610710). For protein detection, 10–20 µL of the sample was subjected to SDS-PAGE, using 10% Tris-Glycine gels (TGX) (Bio-Rad, 5671034) with Tris-Glycine buffer (Bio-Rad, 1610732). […]
Quantification of HaloTag labeling efficiency using in-gel fluorescence. HEK293T cells were cultured, incubated and transfected with pF(UG) hSyn HaloTag-TEV-4×GS-msGFP-mito using lipofectamine LTX reagent as described above. To examine saturation of HaloTag, we screened for fluorescence plateau using 1 μM of JF479-HaloTag ligand,4 JF549-HaloTag ligand (2HTL) and […]
(2HTL) and JF608-HaloTag ligand (3HTL) reached a fluorescence plateau, and they were chosen as saturating counter stains or “chase” dyes for examining the labeling efficiency of biotin-JF-HaloTag ligands (13HTL–16HTL). Next, we developed an in-gel assay to independently quantitate labeling efficiencies of 13HTL–16HTL. We used JF549-HaloTag ligand (2HTL) as chase for evaluating biotin-JF608-HaloTag ligand (14HTL), biotin-JF646-HaloTag ligand (15HTL), and biotin-JF635-HaloTag ligand (16HTL). We used JF608-HaloTag ligand (3HTL) as chase for evaluating biotin-JF549-HaloTag ligand (13HTL). Each experiment consisted of testing the biotin variants 13HTL–16HTL at 100 nM and 1 μM with an incubation time of 2 h and a chase labeling incubation of 1 μM for 0.5 h. The 0.5 h chase labeling period was included with the 2 h total incubation. Each experiment consisted of the following conditions: untransfected cells; (A) transduced, but no dye; (B) non-biotinylated variant of primary label at 1 μM for 0.5 h; (C) the nonbiotinylated version of the chase JF dye at 1 μM for 0.5 h; (D) 100 nM of the nonbiotinylated version of the primary label for 2 h; (E) 100 nM of the biotinylated version of primary label for 2 h; (F) 1 μM of the nonbiotinylated version of the primary label for 2 h; (G) 1 μM of the biotinylated version of primary label for 2 h; and (H) 1 μM of the non-biotinylated version of the chase JF dye at 1 μM for 2 h. This last condition H was the same as condition C but with a longer incubation (2 h vs. 0.5 h) to allow independent verification of the chase saturation using 0.5 h incubation. Samples D–G were incubated with a nonbiotinylated chase dye at 1 μM for 0.5 h. Cells were washed and protein lysates were harvested using Bio-Rad SDS-PAGE products as described above. Specifically, cells were lysed using protein lysis buffer as described above, and adding XT Sample Buffer (Bio-Rad, 1610791) and XT Reducing Agent (Bio-Rad, 1610792). Samples were heated at 72 °C for 5 min. Samples were then loaded onto a 4–12% Criterion XT Bis-Tris gel (Bio-Rad, 3450124) and ran at 150 V for approximately 1 h. Gels were then imaged on a Chemidoc MP imager (Bio-Rad) using orange, red, and far-red filters. Bands representing HaloTag ligand were quantified by densitometry using […]
labeling efficiency calculations, bands representing saturating chase dye fluorescence (e.g., JF549) were compared to saturating primary dye fluorescence allowing estimation of the amount of […]
Where F is the fraction of HaloTag protein labeled, Ce is the experimental chase dye fluorescence signal after incubation with pulse biotin-JF-HaloTag ligand, and Cs is the saturating chase dye fluorescence without incubation with a pulse ligand.
Neuro2a cell culture, labeling, lattice light sheet microscopy (LLSM), and confocal microscopy. Neuro2a cells (ATCC, CCL-131) were cultured in Eagle's minimum essential medium (MEM, phenol red-free; Life Technologies) supplemented with 10% (v/v) fetal bovine serum (FBS), and maintained at 37 °C in a humidified 5% (v/v) CO2 environment. Cells were transiently transfected using nucleofection (Lonza) with plasmids constitutively expressing

SMILES | KL–Z [1] | labeling efficiency ([2]; 100 nM pulse) | labeling efficiency ([2]; 1 µM pulse)
C[Si]1(C)c2cc(N3CC(F)C3)ccc2C2(OC(=O)c3ccc(C(=O)NCCOCCOCCCCCCCl)cc32)c2ccc(N3CC(F)C3)cc21 [6HTL, JF635–HaloTag ligand, reference compound] | 0.0048 | – | –
O=C(CCCCC1SCC2NC(=O)NC21)NCCOCCOCCNC(=O)C1C[N+](=c2ccc3c(-c4cc(C(=O)NCCOCCOCCCCCCCl)ccc4C(=O)[O-])c4ccc(N5CCC5)cc4oc-3c2)C1 (stereo not shown) [13HTL, biotin–JF549–HaloTag ligand] | 5.9 | < 3% | < 3%
CC1(C)C2=CC(=[N+]3CC(C(=O)NCCOCCOCCNC(=O)CCCC[C@@H]4SC[C@@H]5NC(=O)N[C@@H]54)C3)C=CC2=C(c2cc(C(=O)NCCOCCOCCCCCCCl)ccc2C(=O)[O-])c2ccc(N3CCC3)cc21 (stereo partly shown) [14HTL, biotin–JF608–HaloTag ligand] | 0.17 | 11.3 ± 6.4% | 57.7 ± 9.6%
C[Si]1(C)C2=CC(=[N+]3CC(C(=O)NCCOCCOCCNC(=O)CCCC[C@@H]4SC[C@@H]5NC(=O)N[C@@H]54)C3)C=CC2=C(c2cc(C(=O)NCCOCCOCCCCCCCl)ccc2C(=O)[O-])c2ccc(N3CCC3)cc21 (stereo partly shown) [15HTL, biotin–JF646–HaloTag ligand] | 0.0086 | 13.6 ± 3.7% | 61.7 ± 6.8%
C[Si]1(C)C2=CC(=[N+]3CC(F)(C(=O)NCCOCCOCCNC(=O)CCCC[C@@H]4SC[C@@H]5NC(=O)N[C@@H]54)C3)C=CC2=C(c2cc(C(=O)NCCOCCOCCCCCCCl)ccc2C(=O)[O-])c2ccc(N3CC(F)C3)cc21 (stereo partly shown) [16HTL, biotin–JF635–HaloTag ligand] | 0.0032 | 18.0 ± 4.9% | 69.0 ± 4.2%
